Reference: publication PMC3038857, “Using Nuclear Receptor Activity to Stratify Hepatocarcinogens” (PLoS ONE, 2011)
Where two headings read alike, the source gives them in different places.

Legend:
[1] = molecular target: T1, CAR (NR1I3) (Homo sapiens, UniProt Q14994); experiment: NVS_NR_hCAR: Human CAR CITCO (cell-free HTS); format: binding
T1 sequence (Q14994 1-352): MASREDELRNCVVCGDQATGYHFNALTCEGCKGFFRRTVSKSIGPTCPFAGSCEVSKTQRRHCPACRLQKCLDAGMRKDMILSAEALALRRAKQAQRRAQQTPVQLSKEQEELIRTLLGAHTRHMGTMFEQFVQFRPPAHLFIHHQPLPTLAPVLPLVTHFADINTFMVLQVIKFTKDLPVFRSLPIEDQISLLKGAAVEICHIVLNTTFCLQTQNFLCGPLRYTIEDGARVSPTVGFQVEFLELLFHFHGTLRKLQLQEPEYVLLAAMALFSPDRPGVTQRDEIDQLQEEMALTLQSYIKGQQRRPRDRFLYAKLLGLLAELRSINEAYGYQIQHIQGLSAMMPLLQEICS
From the text: These are a collection of biochemical assays measuring binding constants and enzyme inhibition values. Chemicals were initially screened at a single concentration in duplicate wells at a concentration of 10 [drawing 63] M for cytochrome P-450 assays and 25 [drawing 64] M for all others. […] These assays were run by Caliper Life Sciences (Hanover, MD) under contract to EPA. Short assay descriptions are available at: http://www.caliperls.com/products/contract-research/in-vitro/.
Cell-free HTS Assays: A collection of biochemical assays measuring binding constants and enzyme inhibition values. […] These assays were run by Caliper Life Sciences (Hanover, MD) under contract to EPA. Short assay descriptions are available at http://www.caliperls.com/products/contract-research/in-vitro/. Values for all endpoints were imported into GeneData Screener (Basel, Switzerland) and normalised to solvent controls from the same plate as the tested compounds and expressed as percent of neutral control. Concentration-response curves were fit in GeneData Screener (Basel, Switzerland) Condeseo module using the Hill equation and AC50 values were determined. […] Detailed description of the methods, data and analysis methods for this dataset are described in a separate publication.

[2] = test system: Mouse Liver; conditions: ref ToxRefDB, cited from earlier work
[3] = test system: Mouse Liver; conditions: ref ToxRefDB, cited from earlier work; remark: listed apart in the source
[4] = molecular target: T2, AR (androgen receptor) (Homo sapiens, UniProt P10275); experiment: NCGC_AR_Antagonist: GAL4 BLAM Reporter gene assay: AR; format: cell-based; conditions: antagonist mode
T2 construct: expressed in transfected cells
T2 sequence (P10275 1-920): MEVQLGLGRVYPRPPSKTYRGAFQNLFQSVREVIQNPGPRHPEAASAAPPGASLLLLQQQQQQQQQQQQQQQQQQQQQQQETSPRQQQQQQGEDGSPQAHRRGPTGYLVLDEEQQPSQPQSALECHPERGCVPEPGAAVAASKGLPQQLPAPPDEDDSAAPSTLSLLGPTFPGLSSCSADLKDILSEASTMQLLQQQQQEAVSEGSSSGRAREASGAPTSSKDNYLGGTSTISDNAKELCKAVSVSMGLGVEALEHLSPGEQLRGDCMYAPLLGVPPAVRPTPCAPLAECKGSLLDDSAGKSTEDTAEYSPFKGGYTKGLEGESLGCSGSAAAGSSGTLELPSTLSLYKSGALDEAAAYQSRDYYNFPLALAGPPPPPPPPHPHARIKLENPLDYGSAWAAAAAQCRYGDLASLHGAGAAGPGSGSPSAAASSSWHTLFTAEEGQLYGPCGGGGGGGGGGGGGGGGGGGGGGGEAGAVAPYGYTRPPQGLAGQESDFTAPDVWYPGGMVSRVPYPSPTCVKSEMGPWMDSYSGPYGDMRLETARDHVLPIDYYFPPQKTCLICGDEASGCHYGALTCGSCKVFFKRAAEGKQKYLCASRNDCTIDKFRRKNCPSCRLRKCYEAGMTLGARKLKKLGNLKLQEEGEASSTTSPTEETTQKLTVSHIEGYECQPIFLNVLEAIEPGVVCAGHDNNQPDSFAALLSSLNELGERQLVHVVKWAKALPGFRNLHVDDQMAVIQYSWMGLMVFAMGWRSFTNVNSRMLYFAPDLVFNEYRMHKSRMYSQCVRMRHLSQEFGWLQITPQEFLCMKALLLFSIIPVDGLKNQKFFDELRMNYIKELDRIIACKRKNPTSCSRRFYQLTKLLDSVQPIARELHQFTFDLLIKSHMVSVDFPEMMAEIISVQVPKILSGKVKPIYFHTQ
Protocol: (§1) These assays measure binding constants and enzyme inhibition values for nuclear receptors. The targets include [drawing 67] , [drawing 68] , [drawing 69] , [drawing 70] , [drawing 71] , [drawing 72] , [drawing 73] , [drawing 74] , [drawing 75] and [drawing 76] . Each of the nuclear receptor targets was measured in agonist mode. Assays were run at the NIH Chemical Genomics Center (Rockville, MD).
(§2) Cell-based HTS Assays: These assays measuring binding constants and enzyme inhibition values for nuclear receptors. The targets include AR, ER, FXR, LXR, PPARα, PPARδ, PPARγ, RXRα, RXRβ and PXR. Each of the nuclear receptor targets was measured in both agonist and antagonist mode, but the antagonist data is still undergoing analysis due to possible interference between cytotoxicity and assay activity, so antagonist mode data were not used in the present analysis. Assays were run at the NIH Chemical Genomics Center (Rockville, MD) as part of the Tox21 collaboration. […] The R^2 was required to be ≥0.5. Values where only the highest concentration exceeded 50% activity were excluded to eliminate weak or false positives. Detailed description of the methods, data and analysis methods for this dataset will be presented in a separate publication.

[5] = molecular target: T2, AR (androgen receptor); experiment: NCGC_AR_Agonist: GAL4 BLAM Reporter gene assay: AR; format: cell-based; conditions: agonist mode; scale not given, looks like -log10 of molar active concentration; 0 = no activity
Protocol: as §1, §2

[6] = scale not given, looks like -log10 of molar active concentration, 0 = no activity
[7] = mouse chronic study, liver, preneoplastic lesion, coded 6 / Inf / 0, code not explained here
[8] = mouse chronic study, liver, neoplastic lesion, coded 6 / Inf / 0, code not explained here

Nc1cnn(-c2ccccc2)c(=O)c1Cl [r56]
NVS_NR_hCAR [1, 6]: 0

CCC(C)n1c(=O)[nH]c(C)c(Br)c1=O (centres unmarked) [r43]
NVS_NR_hCAR [1, 6]: 0
CHR_Mouse_Liver_2_PreneoplasticLesion [2, 7]: 6
CHR_Mouse_Liver_3_NeoplasticLesion [3, 8]: 6

CC(C)OC(=O)Nc1cccc(Cl)c1 [r59]
CHR_Mouse_Liver_2_PreneoplasticLesion [2, 7]: 6

N#Cc1cc(Br)c(O)c(Br)c1 [r44]
NVS_NR_hCAR [1, 6]: 0
NCGC_AR_Antagonist [4, 6]: 0
CHR_Mouse_Liver_2_PreneoplasticLesion [2, 7]: 6
CHR_Mouse_Liver_3_NeoplasticLesion [3, 8]: 6
NCGC_AR_Agonist [5]: 0

CCCCOCN(C(=O)CCl)c1c(CC)cccc1CC [r46]
NVS_NR_hCAR [1, 6]: 0
NCGC_AR_Antagonist [4, 6]: 4.347
NCGC_AR_Agonist [5]: 0

CCc1cccc(C)c1N(C(=O)CCl)C(C)COC (centres unmarked) [row 208]
NVS_NR_hCAR [1]: 4.462

Cc1ccccc1CO[C@@H]1C[C@@]2(C(C)C)CC[C@]1(C)O2 [r64]
NVS_NR_hCAR [1, 6]: 0
NCGC_AR_Antagonist [4, 6]: 0
CHR_Mouse_Liver_2_PreneoplasticLesion [2, 7]: 6
CHR_Mouse_Liver_3_NeoplasticLesion [3, 8]: 6
NCGC_AR_Agonist [5]: 0

COc1nc(C)nc(NC(=O)NS(=O)(=O)c2ccccc2Cl)n1 [r62]
NVS_NR_hCAR [1, 6]: 0

CC(C)(c1ccc(O)cc1)c1ccc(O)cc1 [r40]
NVS_NR_hCAR [1, 6]: 6.955
NCGC_AR_Antagonist [4, 6]: 4.137
NCGC_AR_Agonist [5]: 0

CC(C)N1C(=O)c2ccccc2NS1(=O)=O [r37]
CHR_Mouse_Liver_2_PreneoplasticLesion [2, 7]: 6
CHR_Mouse_Liver_3_NeoplasticLesion [3, 8]: 6

CNC(=O)Oc1cccc2ccccc12 [r52]
NVS_NR_hCAR [1, 6]: 0
CHR_Mouse_Liver_2_PreneoplasticLesion [2, 7]: 6
CHR_Mouse_Liver_3_NeoplasticLesion [3, 8]: 6

OB(O)O [r41]
NVS_NR_hCAR [1, 6]: 0

CCOC(=O)C(Cl)Cc1cc(-n2nc(C)n(C(F)F)c2=O)c(F)cc1Cl (centres unmarked) [r54]
NVS_NR_hCAR [1, 6]: 0

CCCC1COC(Cn2cncn2)(c2ccc(Cl)cc2Cl)O1 (centres unmarked) [r262]
CHR_Mouse_Liver_2_PreneoplasticLesion ([2]; mouse, chronic study): 6
CHR_Mouse_Liver_3_NeoplasticLesion ([3]; mouse, chronic study): 6

O=C(Nc1ccccc1-c1ccc(Cl)cc1)c1cccnc1Cl [r42]
NVS_NR_hCAR [1, 6]: 0

C=CCOC(=O)C(C)(C)OC(=O)c1cc(-n2c(=O)cc(C(F)(F)F)n(C)c2=O)ccc1Cl [r47]
NVS_NR_hCAR [1, 6]: 0
CHR_Mouse_Liver_2_PreneoplasticLesion [2, 7]: 6

N#Cc1c(Cl)c(Cl)c(Cl)c(C#N)c1Cl [r58]
NVS_NR_hCAR [1, 6]: 0

COC(=O)c1ccccc1CS(=O)(=O)NC(=O)Nc1nc(OC)cc(OC)n1 [r33]
NVS_NR_hCAR [1, 6]: 0

COc1ccc(-c2ccccc2)cc1NNC(=O)OC(C)C [r38]
NVS_NR_hCAR [1, 6]: 0
NCGC_AR_Antagonist [4, 6]: 0
CHR_Mouse_Liver_2_PreneoplasticLesion [2, 7]: 6
CHR_Mouse_Liver_3_NeoplasticLesion [3, 8]: 6
NCGC_AR_Agonist [5]: 0

CCSC(=O)N(CC(C)C)CC(C)C [r49]
NVS_NR_hCAR [1, 6]: 0
NCGC_AR_Antagonist [4, 6]: 0
NCGC_AR_Agonist [5]: 0

CC(C)N1C(=O)N(c2ccccc2)CS/C1=N\C(C)(C)C [r45]
NVS_NR_hCAR [1, 6]: 0
NCGC_AR_Antagonist [4, 6]: 0
CHR_Mouse_Liver_2_PreneoplasticLesion [2, 7]: 6
CHR_Mouse_Liver_3_NeoplasticLesion [3, 8]: 6
NCGC_AR_Agonist [5]: 0

COc1nc(C)nc(NC(=O)NS(=O)(=O)c2ccccc2Cl)n1 [r63]
NVS_NR_hCAR [1, 6]: 0

CC1=C(C(=O)Nc2ccccc2)SCCO1 [r53]
NCGC_AR_Antagonist [4, 6]: 0
NCGC_AR_Agonist [5]: 0

CC(C)Oc1cc(-n2nc(C(C)(C)C)oc2=O)c(Cl)cc1Cl [row 225]
NCGC_AR_Antagonist [4]: 4.167
CHR_Mouse_Liver_2_PreneoplasticLesion ([2]; chronic mouse study, liver): 6
CHR_Mouse_Liver_3_NeoplasticLesion ([3]; chronic mouse study, liver): 6

O=C1C2CC=CCC2C(=O)N1SC(Cl)(Cl)Cl (centres unmarked) [r51]
NVS_NR_hCAR [1, 6]: 0

Cc1c(COC(=O)C2C(/C=C(\Cl)C(F)(F)F)C2(C)C)cccc1-c1ccccc1 (centres unmarked) [r39]
NVS_NR_hCAR [1, 6]: 0
CHR_Mouse_Liver_2_PreneoplasticLesion [2, 7]: 6
CHR_Mouse_Liver_3_NeoplasticLesion [3, 8]: 6

CC(C)=CC1C(C(=O)OCc2coc(Cc3ccccc3)c2)C1(C)C (centres unmarked) [r280]
CHR_Mouse_Liver_2_PreneoplasticLesion ([2]; chronic study, mouse liver): 6
CHR_Mouse_Liver_3_NeoplasticLesion ([3]; chronic study, mouse liver): 6
